Assays:
[1] = system: Staphylococcus aureus 705E; assay: Antibacterial activity for MRSA; type: cell-based; conditions: Staphylococcus aureus 705E (MRSA)
Protocol: (§1) The compound of example 2 was orally administered to determine the LD50 for a group of male mice. […] The antibacterial activity for MRSA(Methicillin Resistant Staphyloccocus Aureus) was tested by the compound of example 2.

[2] = system: Staphylococcus aureus 703E; assay: Antibacterial activity for MRSA; type: cell-based; conditions: Staphylococcus aureus 703E (MRSA)
Protocol: as §1

[3] = system: Staphylococcus aureus 121E; assay: Antibacterial activity for MRSA; type: cell-based; conditions: Staphylococcus aureus 121E (MRSA)
Protocol: as §1

[4] = system: Staphylococcus aureus 701E; assay: Antibacterial activity for MRSA; type: cell-based; conditions: Staphylococcus aureus 701E (MRSA)
Protocol: as §1

[5] = system: Staphylococcus aureus 256E; assay: Antibacterial activity for MRSA; type: cell-based; conditions: Staphylococcus aureus 256E (MRSA)
Protocol: as §1

[6] = system: Staphylococcus aureus 714E; assay: Antibacterial activity for MRSA; type: cell-based; conditions: Staphylococcus aureus 714E (MRSA)
Protocol: as §1

[7] = system: Staphylococcus aureus 208E; assay: Antibacterial activity for MRSA; type: cell-based; conditions: Staphylococcus aureus 208E (MRSA)
Protocol: as §1

[8] = system: Staphylococcus aureus 752E; assay: Antibacterial activity for MRSA; type: cell-based; conditions: Staphylococcus aureus 752E (MRSA)
Protocol: as §1

[9] = system: Staphylococcus aureus 694E; assay: Antibacterial activity for MRSA; type: cell-based; conditions: Staphylococcus aureus 694E (MRSA)
Protocol: as §1

[10] = system: Staphylococcus aureus 693E; assay: Antibacterial activity for MRSA; type: cell-based; conditions: Staphylococcus aureus 693E (MRSA)
Protocol: as §1

[11] = system: Staphylococcus aureus 697E; assay: Antibacterial activity for MRSA; type: cell-based; conditions: Staphylococcus aureus 697E (MRSA)
Protocol: as §1

[12] = system: Staphylococcus aureus 88 E; assay: Antibacterial activity for MRSA; type: cell-based; conditions: Staphylococcus aureus 88 E (MRSA)
Protocol: as §1

[13] = system: Staphylococcus aureus 711E; assay: Antibacterial activity for MRSA; type: cell-based; conditions: Staphylococcus aureus 711E (MRSA)
Protocol: as §1

[14] = system: Staphylococcus aureus 707E; assay: Antibacterial activity for MRSA; type: cell-based; conditions: Staphylococcus aureus 707E (MRSA)
Protocol: as §1

[15] = system: Staphylococcus aureus 708E; assay: Antibacterial activity for MRSA; type: cell-based; conditions: Staphylococcus aureus 708E (MRSA)
Protocol: as §1

[16] = system: Saphylococcus aureus 692E; assay: Antibacterial activity for MRSA; type: cell-based; conditions: Saphylococcus aureus 692E (MRSA)
Protocol: as §1

[17] = system: Staphylococcus aureus 695E; assay: Antibacterial activity for MRSA; type: cell-based; conditions: Staphylococcus aureus 695E (MRSA)
Protocol: as §1

[18] = system: Staphylococcus aureus 706E; assay: Antibacterial activity for MRSA; type: cell-based; conditions: Staphylococcus aureus 706E (MRSA)
Protocol: as §1

[19] = system: Staphylococcus aureus 690E; assay: Antibacterial activity for MRSA; type: cell-based; conditions: Staphylococcus aureus 690E (MRSA)
Protocol: as §1

S. aureus SG 511 = assay: In vitro antibacterial activity, MIC by agar dilution method; type: cell-based; conditions: Staphylococcus aureus, SG511; S. aureus SG 511; agar dilution method; read-out: In vitro Antibacterial Activity, MIC
Protocol: (§2) The typical examples of the present compounds were tested for antimicrobial activity in vitro against twenty strains of Gram-positive and Gram-negative microorganisms.
(§3) The numerals in the table 1 show minimum inhibitory concentrations(MIC in µg/ml). The minimum inhibitory concentrations were determined according to the agar dilution method recommended by Japan Society of Chemotherapy[Chemotherapy., 29, 76 (1981)].

K. oxytoca 1082E = assay: as above; type: cell-based; conditions: Klebsiella oxytoca; K. oxytoca 1082E; agar dilution method; read-out: In vitro Antibacterial Activity, MIC
Protocol: as §2, §3

S. pyogenes A 308 = assay: as above; type: cell-based; conditions: Streptococcus pyogenes, A308; S. pyogenes A 308; agar dilution method; read-out: In vitro Antibacterial Activity, MIC
Protocol: as §2, §3

P. aeruginosa 9027 = assay: as above; type: cell-based; conditions: Pseudomonas aeruginosa; P. aeruginosa 9027; agar dilution method; read-out: In vitro Antibacterial Activity, MIC
Protocol: as §2, §3

E. coli TEM = assay: as above; type: cell-based; conditions: Escherichia coli; E. coli TEM; agar dilution method; read-out: In vitro Antibacterial Activity, MIC
Protocol: as §2, §3

E. coli DC 0 = assay: as above; type: cell-based; conditions: Escherichia coli, DC0, read-out: In vitro Antibacterial Activity, MIC
Protocol: as §2, §3

S. faecium MD 86 = assay: as above; type: cell-based; conditions: Enterococcus faecium, MD86; S. faecium MD 86; agar dilution method; read-out: In vitro Antibacterial Activity, MIC
Protocol: as §2, §3

E. coli DC 2 = assay: as above; type: cell-based; conditions: Escherichia coli, DC2, read-out: In vitro Antibacterial Activity, MIC
Protocol: as §2, §3

E. coli 1507E = assay: as above; type: cell-based; conditions: Escherichia coli; E. coli 1507E; agar dilution method; read-out: In vitro Antibacterial Activity, MIC
Protocol: as §2, §3

S. pyogenes A 77 = assay: as above; type: cell-based; conditions: Streptococcus pyogenes, A77; S. pyogenes A 77; agar dilution method; read-out: In vitro Antibacterial Activity, MIC
Protocol: as §2, §3

P. aeruginosa 1592E = assay: as above; type: cell-based; conditions: Pseudomonas aeruginosa; P. aeruginosa 1592E; agar dilution method; read-out: In vitro Antibacterial Activity, MIC
Protocol: as §2, §3

S. aureus 285 = assay: as above; type: cell-based; conditions: Staphylococcus aureus; S. aureus 285; agar dilution method; read-out: In vitro Antibacterial Activity, MIC
Protocol: as §2, §3

S. aureus 503 = assay: as above; type: cell-based; conditions: Staphylococcus aureus; S. aureus 503; agar dilution method; read-out: In vitro Antibacterial Activity, MIC
Protocol: as §2, §3

P. aeruginosa 1771M = assay: as above; type: cell-based; conditions: Pseudomonas aeruginosa; P. aeruginosa 1771M; agar dilution method; read-out: In vitro Antibacterial Activity, MIC
Protocol: as §2, §3

P. aeruginosa 1771 = assay: as above; type: cell-based; conditions: Pseudomonas aeruginosa; P. aeruginosa 1771; agar dilution method; read-out: In vitro Antibacterial Activity, MIC
Protocol: as §2, §3

Oral LD50 in male mice = conditions: mouse, in vivo, orally administered
Protocol: as §1

E. cloacae 1321E = assay: In vitro antibacterial activity, MIC by agar dilution method; type: cell-based; conditions: Enterobacter cloacae; E. cloacae 1321E; agar dilution method; read-out: In vitro Antibacterial Activity, MIC
Protocol: as §2
(§4) The minimum inhibitory concentrations were determined according to the agar dilution method recommended by Japan Society of Chemotherapy[Chemotherapy., 29, 76 (1981)].

K. aerogenes 1522E = assay: as above; type: cell-based; conditions: Klebsiella aerogenes; K. aerogenes 1522E; agar dilution method; read-out: In vitro Antibacterial Activity, MIC
Protocol: as §2, §4

E. coli O 55 = assay: as above; type: cell-based; conditions: Escherichia coli, O55; E. coli O 55; agar dilution method; read-out: In vitro Antibacterial Activity, MIC
Protocol: as §2, §4

S. typhimurium = assay: as above; type: cell-based; conditions: Salmonella enterica; S. typhimurium; agar dilution method; read-out: In vitro Antibacterial Activity, MIC
Protocol: as §2, §4

E. cloacae P99 = assay: as above; type: cell-based; conditions: Enterobacter cloacae; E. cloacae P99; agar dilution method; read-out: In vitro Antibacterial Activity, MIC
Protocol: as §2, §4

CSCC1CCN(c2c(F)cc3c(=O)c(C(=O)O)cn(C4CC4)c3c2F)C1 (stereo not shown) [Example 2, 1-cyclopropyl-6,8-difluoro-7-(3-methylthiomethylpyrrolidinyl)-1,4-dihydro-4-oxo-3-quinolinecarboxylic acid]
0.195 µg/mL: MIC (S. pyogenes A 308) | MIC (S. faecium MD 86)
0.025 µg/mL: Antibacterial Activity for MRSA [7] | MIC (E. cloacae 1321E)
0.781 µg/mL: MIC (P. aeruginosa 9027) | MIC (E. coli DC 0) | MIC (E. coli DC 2) | MIC (P. aeruginosa 1592E)
0.013 µg/mL: Antibacterial Activity for MRSA [1] | Antibacterial Activity for MRSA [3] | Antibacterial Activity for MRSA [4] | Antibacterial Activity for MRSA [5] | Antibacterial Activity for MRSA [8] | Antibacterial Activity for MRSA [9] | Antibacterial Activity for MRSA [11] | Antibacterial Activity for MRSA [13] | Antibacterial Activity for MRSA [17] | Antibacterial Activity for MRSA [18] | MIC (E. coli O 55)
0.002 µg/mL: MIC (S. aureus SG 511) | MIC (S. aureus 285) | MIC (S. aureus 503)
0.049 µg/mL: MIC (S. typhimurium)
> 3000 mg/kg: LD50 (Oral LD50 in male mice)
0.007 µg/mL: Antibacterial Activity for MRSA [2] | Antibacterial Activity for MRSA [6] | Antibacterial Activity for MRSA [10] | Antibacterial Activity for MRSA [14] | Antibacterial Activity for MRSA [15] | MIC (K. oxytoca 1082E)
0.098 µg/mL: MIC (S. pyogenes A 77) | MIC (P. aeruginosa 1771M) | MIC (K. aerogenes 1522E) | MIC (E. cloacae P99)
0.004 µg/mL: Antibacterial Activity for MRSA [12] | Antibacterial Activity for MRSA [16] | Antibacterial Activity for MRSA [19]
0.391 µg/mL: MIC (E. coli TEM) | MIC (E. coli 1507E) | MIC (P. aeruginosa 1771)

Reference: patent EP0500835B1, “A NOVEL QUINOLONE CARBOXYLIC ACID DERIVATIVE” (DAEWOONG PHARMACEUTICAL CO., LTD., priority 1990, dated 1992)
